Data as given in patent publication US20060148030A1, “Nuclear receptor err y 3” (FUJISAWA PHARMACEUTICAL CO., LTD, priority 2002, published 2006).

B1: ERRγ3: novel ERRγ isoform, nuclear receptor protein of 396 amino acids (SEQ ID NO: 2) lacking part of the DNA binding domain (protein, listed as Homo sapiens)
chain: MSNKDRHIDSSCSSFIKTEPSSPASLTDSVNHHSPGGSSDASGSYSSTMNGHQNGLDSPPLYPSAPILGGSGPVRKLYDDCSSTIVEDPQTKCEYMLNSMPKRLCLVCGDIASGYHYGVASCEACKAFFKRTIQGVRLDRVRGGRQKYKRRIDAENSPYLNPQLAQPAKKPYNKIVSHLLVAEPEKIYAMPDPTVPDSDIKALTTLCDLADRELVVIIGWAKHIPGFSTLSLADQMSLLQSAWMEILILGVVYRSLSFEDELVYADDYIMDEDQSKLAGLLDLNNAILQLVKKYKSMKLEKEEFVTLKAIALANSDSMHIEDVEAVQKLQDVLHEALQDYEAGQHMEDPRRAGKMLMTLPLLRQTSTKAVQHFYNIKLEGKVPMHKLFLEMLEAKV

System: ERRγ2
Test: Reporter gene assay, ERRγ3 coexisted with ERRγ2, ERE luciferase reporter in CV-1 cells
Format: cell-based, human
Conditions: FIG. 15
Protocol: The reporter gene assay was performed using CV-1 cells (African green monkey kidney-derived cell line) as hosts. Host cells were transfected with luciferase reporter plasmids and expression plasmids for ERRγ3, ERRγ2, or both. They were then exposed to 4-hydroxytamoxifen at different concentrations (0, 10^−10 to −10^−5 M) for 24 hours, whereupon luciferase activity within the cells was measured.
Transfection was performed as follows: CV-1 cells were suspended at 2×10^5 cells/2.5 ml in DMEM medium supplemented with 10% fetal bovine serum, 2000 U/l of penicillin G, and 100 mg/l streptomycin. These cells were seeded to a 6-well plate at 2.5 ml/well, and cultured for 18 to 24 hours in a CO2 incubator at 37° C. in the presence of 5% CO2. 1 μg of each of the transcription factor expression plasmid, the luciferase reporter plasmid, and another luciferase reporter plasmid for normalizing the measured value (pRL-TK), were dissolved in Opti-MEM (Gibco BRL) to total of 150 μl. 7 μl of the cell transfection reagent LipofectAMINE 2000 (Gibco BRL) was diluted in 143 μl of Opti-MEM, and this was added to the mixture drop by drop while stirring. […]
Luciferase activity was measured using the Dual-Luciferase™ Reporter Assay System (Promega). […] The protocol for measurement was as follows: 50 μl of Luciferase Assay Reagent II was added to each well, stirred for 0.3 seconds and measured for one second.

ERRγ2, sequence (P62508 whole entry): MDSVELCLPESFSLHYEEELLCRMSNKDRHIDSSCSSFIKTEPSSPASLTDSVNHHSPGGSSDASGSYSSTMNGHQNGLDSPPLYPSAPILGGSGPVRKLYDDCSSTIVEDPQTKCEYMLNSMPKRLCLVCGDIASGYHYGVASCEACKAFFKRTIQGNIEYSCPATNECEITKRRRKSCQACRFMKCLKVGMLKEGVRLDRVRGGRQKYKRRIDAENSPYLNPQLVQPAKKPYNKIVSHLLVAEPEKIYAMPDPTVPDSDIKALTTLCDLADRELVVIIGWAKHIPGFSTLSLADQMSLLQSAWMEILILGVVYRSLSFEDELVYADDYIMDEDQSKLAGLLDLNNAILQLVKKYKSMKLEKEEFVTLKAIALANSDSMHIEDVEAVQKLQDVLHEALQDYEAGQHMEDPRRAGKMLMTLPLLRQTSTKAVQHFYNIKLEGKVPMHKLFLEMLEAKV

Row | Molecule | 4-hydroxytamoxifen concentration at which the enhancing function of ERRγ3 on ERRγ2 was reduced (CV-1 cells, 24 hours exposure) | enhancement of the transcriptional activation function of ERRγ2 (ERRγ3 coexisted with ERRγ2, CV-1 cells, ERE luciferase reporter)
1 | 4-hydroxytamoxifen [reference compound] | ≥ 10^−6 M | –
2 | B1 | – | 53-68%
